Earlier results on 51 compounds are cited in publication PMC6311893, “Computational prediction of plasma protein binding of cyclic peptides from small molecule experimental data using sparse modeling techniques” (BMC Bioinformatics, 2018).

Where two headings read alike, the source gives them in different places.

This data set relates to plasma protein. Particulars: cited from earlier work.
Setting [1] is: fraction bound to plasma protein, small molecule dataset, sheet 1-SM, ref Ingle et al.
The mark [2] stands for this setting: fraction bound to plasma protein, small molecule dataset, sheet 1-SM (Set Dte = test, Dtr = training), ref Ingle et al.
Setting [3] is: fraction bound to plasma protein, small molecule dataset, sheet 1-SM, Set Dtr, ref Ingle et al.

For `CN1C(=O)CN=C(c2ccccc2F)c2cc([N+](=O)[O-])ccc21` [Flunitrazepam], for the setting “plasma”, the “PPB (fb)” value is on record as 0.81. `CC(C)C(=O)Nc1ccc([N+](=O)[O-])c(C(F)(F)F)c1` [flutamide]: the “PPB (fb)” value under setting [1] is recorded as 0.9. `CN[C@@H]1CCc2[nH]c3ccc(C(N)=O)cc3c2C1` [Frovatriptan]: the “PPB (fb)” value under setting [2] is 0.15. As for lacidipine, the “PPB (fb)” value (plasma) is given as 0.95.

As to `CC(Oc1c(Cl)cccc1Cl)C1=NCCN1` (stereo not drawn) [lofexidine], the “PPB (fb)” value under setting [1] is on record as 0.6. Consider `C[C@H]1[C@H](OC(=O)CCC(=O)O)O[C@@H]2O[C@@]3(C)CC[C@H]4[C@H](C)CC[C@@H]1[C@@]24OO3` [Artesunate], for which the “PPB (fb)” value under setting [3] is on record as 0.75. Regarding `Cc1cc(=O)n(-c2ccccc2)n1C` [Antipyrine], the “PPB (fb)” value (plasma) is listed as 0.07. As to `Cc1nc2c([nH]1)-c1ccccc1N(C(=O)c1ccc(NC(=O)c3ccccc3-c3ccccc3)cc1)CC2` [Conivaptan], the “PPB (fb)” value under setting [3] is 0.99.

As to Oxytetracycline, under “plasma”, the “PPB (fb)” value is 0.2. With `NS(=O)(=O)c1ccc(S(=O)(=O)Nc2cccc3c(Cl)c[nH]c23)cc1` [indisulam], under setting [1], the “PPB (fb)” value was 0.98. For the compound `CC(C)CN(C[C@@H](O)[C@H](Cc1ccccc1)NC(=O)O[C@H]1CCOC1)S(=O)(=O)c1ccc(N)cc1` [amprenavir], the “PPB (fb)” value under setting [2] is given as 0.9. As for `CCC1(c2ccccc2)C(=O)NCNC1=O` [primidone], under setting [1], the “PPB (fb)” value is 0.2. `CC(c1cc2ccccc2s1)N(O)C(N)=O` (stereo not drawn) [zileuton]: under setting [2], the “PPB (fb)” value is reported as 0.93. On to `CCN(C)C(=O)Oc1cccc([C@H](C)N(C)C)c1` [Rivastigmine], for which the “PPB (fb)” value (plasma) was 0.4. On to `O=c1n(CCCN2CCN(c3cccc(Cl)c3)CC2)nc2ccccn12` [trazodone], for which the “PPB (fb)” value under setting [3] was 0.92. With `CCCC(C)C1(CC)C(=O)NC(=O)NC1=O` (stereo not drawn) [Pentobarbital], the “PPB (fb)” value (plasma) is 0.56.

As to `C1=Cc2cccc(OCC3CNCCO3)c2C1` (stereo not drawn) [indeloxazine], under setting [1], the “PPB (fb)” value is listed as 0.94. Consider `CC(Oc1c(Cl)cccc1Cl)C(=O)NC1C(=O)N2C1SC(C)(C)C2C(=O)O` (stereo not drawn) [penicillin57], for which the “PPB (fb)” value under setting [1] is 0.96.

Consider `CC1(C)SC2C(NC(=O)c3cccc4ccccc34)C(=O)N2C1C(=O)O` (stereo not drawn) [penicillin64], for which the “PPB (fb)” value under setting [2] is 0.86. Consider `CCNC(=O)[C@@H]1CCCN1C(=O)[C@H](CCCNC(=N)N)NC(=O)[C@H](CC(C)C)NC(=O)[C@@H](CC(C)C)NC(=O)[C@H](Cc1ccc(O)cc1)NC(=O)[C@H](CO)NC(=O)[C@H](Cc1c[nH]c2ccccc12)NC(=O)[C@H](Cc1c[nH]cn1)NC(=O)[C@@H]1CCC(=O)N1` [Leuprolide], for which the “PPB (fb)” value (human, plasma) is 0.46. As for `CC/C=C\C/C=C\C/C=C\C/C=C\C/C=C\C/C=C/CCC(=O)O[C@@H](C(=O)O[C@H]1C[C@@]2(O)[C@@H](OC(=O)c3ccccc3)C3[C@](C)(C(=O)[C@H](OC(C)=O)C(=C1C)C2(C)C)[C@@H](O)C[C@H]1OC[C@@]31OC(C)=O)[C@@H](NC(=O)c1ccccc1)c1ccccc1` (stereo partly drawn) [DHA Paclitaxel], the “PPB (fb)” value (plasma) is 0.9962. For `O=P1(NCCCl)OCCCN1CCCl` (stereo not drawn) [Ifosfamide], where the note is “plasma”, the “PPB (fb)” value is 0.

With `NCC(CC(=O)O)c1ccc(Cl)cc1` (stereo not drawn) [baclofen], the “PPB (fb)” value under setting [2] was 0.3.

For `C[C@@H]1CC(=O)NN=C1c1ccc(NN=C(C#N)C#N)cc1` [Levosimendan], under setting [3], the “PPB (fb)” value was 0.98. Regarding `N=C(N)c1ccc(C(=O)N[C@@H](Cc2ccc(O)cc2)C(=O)N2CCC(OCC(=O)O)CC2)cc1` [Lamifiban], the “PPB (fb)” value under setting [2] is on record as 0.06.

`C=CCC1(C(C)C#CCC)C(=O)N=C(O)N(C)C1=O` (stereo not drawn) [Methohexital]: the “PPB (fb)” value (plasma) is given as 0.75. With `N[C@@H](Cc1ccc(O)c(O)c1)C(=O)O` [Levodopa], under setting [3], the “PPB (fb)” value is 0.12. For `COc1nccnc1NS(=O)(=O)c1ccc(N)cc1` [sulfametopyrazine], under setting [1], the “PPB (fb)” value is listed as 0.72.

`C[C@]12CC[C@H](O)C[C@H]1CC[C@@H]1[C@@H]2CC[C@]2(C)[C@@H](C3=CC(=O)OC3)CC[C@]12O` [Digitoxigenin]: the “PPB (fb)” value (plasma) is 0.93. For `CC(=O)NCCCS(=O)(=O)O` [acamprosate], the “PPB (fb)” value (plasma) is given as 0.03. For `CC(=O)OCC(=O)[C@@]12N=C(C)O[C@@H]1C[C@H]1[C@@H]3CCC4=CC(=O)C=C[C@]4(C)[C@H]3[C@@H](O)C[C@@]12C` [deflazacort], under setting [2], the “PPB (fb)” value is 0.4. Consider `CC(NCCC(c1ccccc1)c1ccccc1)c1ccccc1` (stereo not drawn) [fendiline], for which, under setting [1], the “PPB (fb)” value was 0.95. With `CCC(CC)OCC(=O)NC1C(=O)N2C1SC(C)(C)C2C(=O)O` (stereo not drawn) [penicillin8], the “PPB (fb)” value under setting [1] is on record as 0.47. On to `CCOC(=O)NC1=C(N2CC2)C(=O)C(NC(=O)OCC)=C(N2CC2)C1=O` [diaziquone], for which the “PPB (fb)” value under setting [2] is given as 0.79. As to `NCC1OC(OC2C(CO)OC(OC3C(O)C(N)CC(N)C3OC3OC(CN)C(O)C(O)C3N)C2O)C(N)C(O)C1O` (stereo not drawn) [neomycin], under setting [1], the “PPB (fb)” value is given as 0.2. Turning to `C[C@@H]1CCC[C@H](C)N1NC(=O)c1ccc(Cl)c(S(N)(=O)=O)c1` [clopamide], the “PPB (fb)” value under setting [2] is 0.5. Turning to `CN[C@@H]1[C@@H](O)[C@@H](O[C@@H]2[C@@H](O)[C@H](O[C@H]3O[C@H](CN)[C@@H](O)[C@H](O)[C@H]3O)[C@@H](N)C[C@H]2NC(=O)[C@@H](O)CN)OC[C@]1(C)O` [Isepamicin], the “PPB (fb)” value under setting [3] is recorded as 0.05. Regarding `COC(=O)C(c1ccccc1)C1CCCCN1` (stereo not drawn) [Methylphenidate], the “PPB (fb)” value (plasma) is listed as 0.18. For `CC(CN(C)C)CN1c2ccccc2Sc2ccccc21` (stereo not drawn) [trimeprazine], the “PPB (fb)” value under setting [3] is reported as 0.85.

With `CN1[C@@H]2CC[C@H]1C[C@@H](OC(=O)c1c[nH]c3ccccc13)C2` [tropisetron], the “PPB (fb)” value under setting [3] is listed as 0.7. `CN1CCC[C@H]1c1cccnc1` [Nicotine]: the “PPB (fb)” value (plasma) is reported as 0.05. In the case of `CC(C)N(CCC(C(N)=O)(c1ccccc1)c1ccccn1)C(C)C` (stereo not drawn) [Disopyramide], the “PPB (fb)” value under setting [3] was 0.87.

Consider `CCC1(C)CC(=O)NC1=O` (stereo not drawn) [ethosuximide], for which the “PPB (fb)” value under setting [1] is reported as 0.

Regarding `CC1OC2(CS1)CN1CCC2CC1` (stereo not drawn) [cevimeline], the “PPB (fb)” value under setting [2] was 0.15.

Regarding `CC(=O)Nc1nnc(S(N)(=O)=O)s1` [Acetazolamide], the “PPB (fb)” value under setting [3] was 0.92. For the compound `CCCc1c2oc(C(=O)O)cc(=O)c2cc2c(=O)cc(C(=O)O)n(CC)c12` [nedocromil], the “PPB (fb)” value under setting [1] is 0.8. For the compound `N[C@@H](Cc1ccc(N(CCCl)CCCl)cc1)C(=O)O` [Melphalan], where the note is “plasma”, the “PPB (fb)” value is recorded as 0.88. Consider `C/C=C/C[C@@H](C)C(=O)[C@H]1C(=O)N[C@@H](C(C)C)C(=O)N(C)CC(=O)N(C)[C@@H](CC(C)C)C(=O)N[C@@H](C(C)C)C(=O)N(C)[C@@H](CC(C)C)C(=O)N[C@@H](C)C(=O)N[C@H](C)C(=O)N(C)[C@@H](CC(C)C)C(=O)N(C)[C@@H](CC(C)C)C(=O)N(C)[C@@H](C(C)C)C(=O)N1C` [Valspodar], for which the “PPB (fb)” value under setting [1] is 0.98. In the case of `[H]/N=C(/N)N[C@H]1[C@H](O)[C@@H](O)[C@H](O[C@@H]2O[C@@H](C)[C@](O)(C=O)[C@H]2O[C@@H]2O[C@@H](CO)[C@H](O)[C@@H](O)[C@@H]2NC)[C@@H](N/C(N)=N\[H])[C@@H]1O` [Streptomycin], under setting [1], the “PPB (fb)” value was 0.37. `CC1(C)SC2C(NC(=O)C(NC(=O)c3ccccn3)c3ccccc3)C(=O)N2C1C(=O)O` (stereo not drawn) [penicillin36]: the “PPB (fb)” value under setting [1] is 0.63. Take `Cc1ccsc1C(=CCCN1CCC[C@@H](C(=O)O)C1)c1sccc1C` [Tiagabine]: the “PPB (fb)” value under setting [2] is listed as 0.96.
